Assay results taken from article PMC10605449 (Biosensors, 2023).

How the values were obtained:
TEAD1 [1] = target: T1, TEAD1 (Homo sapiens, UniProt P28347); test: Binary complex formation of TEAD1 to TEAD binders, biochemical assays; conditions: data not shown
TEAD1 [2] = target: T1, TEAD1; test: Binary complex formation of TEAD1 to TEAD binders, SPR; format: binding; conditions: data not shown
[3] = target: T2, YAP(2-268):TEAD1(209-436) interaction (Homo sapiens, UniProt P28347); test: SPR, inhibition of YAP:TEAD1 interaction: TEAD1 pre-incubated with binder, injected over cellular biotinylated YAP(2-268); format: binding; conditions: for Effect on YAP(2-268):TEAD1 interaction compared with TEAD1 apo-form: TEAD1 incubated with saturating concentration (30 µM) of binder
T2 construct: made in house; host or cells: YAP: E. coli BL21 Star (DE3) pRARE2 lysate
Excerpt: The cellular biotinylated YAP(2-268) protein, as well as the biotinylated YAP(61-100) peptide, were immobilized using a similar approach as that described previously. However, neutravidin protein (ThermoFisher Scientific) was used as the selected pre-coated surface on a CM5 Series S sensor chip instead of streptavidin. […] The remaining activated groups were then blocked with ethanolamine-HCl. […] The interaction analysis cycles consisted of 120 s of sample injection followed by 280 s of running buffer flow. The experiment was performed at 15 °C. To ensure that the surface integrity of the cellular biotinylated YAP remained intact and that the interaction kinetic profile with TEAD1 was restored, an additional injection of TEAD1 apo-form was performed at the end of each experiment. All sensorgrams were processed by first subtracting the binding response recorded from the control surface (reference spot, where only the avidin protein is immobilized), followed by subtraction of the buffer blank injection from the reaction spot. All datasets were fitted to a simple 1:1 Langmuir interaction model to determine the kinetic rate constants, and the interaction affinity was additionally calculated at a steady state when applicable. In cases where small molecules were present during the assay, a DMSO solvent correction (1–3%) was applied to account for variations in bulk signal and to achieve high-quality data. The experiments with immobilized purified proteins were performed on a Biacore 4000 (Cytiva, Uppsala, Sweden), and the interaction was evaluated using the provided Biacore 4000 evaluation software, while the experiments with soluble cell lysates on a Biacore T200 (Cytiva, Uppsala, Sweden) used the provided Biacore T200 evaluation software. All SPR experiments were performed in duplicate.

DKC1(1-514) = target: T3, DKC1(1-514) (Homo sapiens, UniProt O60832); test: SPR Extract2Chip, cellular biotinylated DKC1(1-514), RuvBL1/RuvBL2 injected; format: binding
T3 construct: The cellular biotinylated His6-DKC1(1-514)-AviTag was immobilized using the approach described in Section 2.5.2; made in house; host or cells: E. coli BL21(DE3), co-expressed with BirA; soluble lysate used without purification
T3 sequence (O60832 1-514): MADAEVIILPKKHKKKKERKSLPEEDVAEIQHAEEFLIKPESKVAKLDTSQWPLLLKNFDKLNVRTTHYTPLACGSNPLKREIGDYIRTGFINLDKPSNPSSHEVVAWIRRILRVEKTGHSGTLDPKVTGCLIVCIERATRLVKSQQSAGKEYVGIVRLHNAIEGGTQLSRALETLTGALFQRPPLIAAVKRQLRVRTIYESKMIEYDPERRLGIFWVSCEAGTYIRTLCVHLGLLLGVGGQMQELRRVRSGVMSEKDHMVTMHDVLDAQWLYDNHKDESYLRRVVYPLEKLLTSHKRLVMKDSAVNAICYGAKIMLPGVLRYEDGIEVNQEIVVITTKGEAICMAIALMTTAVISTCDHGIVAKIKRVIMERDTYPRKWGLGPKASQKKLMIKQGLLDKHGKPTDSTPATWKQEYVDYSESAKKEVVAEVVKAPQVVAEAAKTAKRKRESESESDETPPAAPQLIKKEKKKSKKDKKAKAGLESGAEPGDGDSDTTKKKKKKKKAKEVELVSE
Procedure: The cellular biotinylation of the DKC1(1-514) protein followed the same approach as that described for CypD. DKC1(1-514) was expressed in BL21(DE3) in LB media and induced with 500 µM IPTG overnight at 18 °C. The PD-10 Desalting column was equilibrated with buffer U (50 mM HEPES pH 6.5, 750 mM KCl, 0.5 mM EDTA, and 0.5 mM TCEP).
The cellular biotinylated His6-DKC1(1-514)-AviTag was immobilized using the approach described in Section 2.5.2. The soluble cell lysate was diluted to 15 µg/mL and coupled with 150 and 300 s injection times to reach 130 to 175 RU. […]
All sensorgrams were processed by first subtracting the binding response recorded from the control surface (reference spot, where only the avidin protein is immobilized), followed by subtraction of the buffer blank injection from the reaction spot. All datasets were fitted to a simple 1:1 Langmuir interaction model to determine the kinetic rate constants, and the interaction affinity was additionally calculated at a steady state when applicable. […] The experiments with immobilized purified proteins were performed on a Biacore 4000 (Cytiva, Uppsala, Sweden), and the interaction was evaluated using the provided Biacore 4000 evaluation software, while the experiments with soluble cell lysates on a Biacore T200 (Cytiva, Uppsala, Sweden) used the provided Biacore T200 evaluation software. […]

[4] = target: T4, His6-RuvBL1(1-456)/RuvBL2(1-463) (UniProt Q9Y265 1-456; Q9Y230 1-463); test: SPR; cellular biotinylated His6-DKC1(1-514)-AviTag captured from soluble cell lysate (130 to 175 RU) on neutravidin-coated CM5 chip; RuvBL1/RuvBL2 complexes injected, 10 concentrations, 2-fold series from 0.05 µM; 20 mM NaKPi pH 7.5, 150 mM NaCl, 5 mM MgCl2, 1 mM DTT, 0.05% Tween 20; 25 °C; 1:1 Langmuir fit; conditions: one partner purified
T4 construct: RuvBL1, residues 1-456; RuvBL2, residues 1-463; also called RuvBL1/RuvBL2; AAA+ ATPases RuvBL1/RuvBL2; not shown: His6, N-terminal, kept

[5] = TEAD1 incubated with 30 µM binder 18 h at 30 °C, 15 °C

T2 sequence (P28347 209-426): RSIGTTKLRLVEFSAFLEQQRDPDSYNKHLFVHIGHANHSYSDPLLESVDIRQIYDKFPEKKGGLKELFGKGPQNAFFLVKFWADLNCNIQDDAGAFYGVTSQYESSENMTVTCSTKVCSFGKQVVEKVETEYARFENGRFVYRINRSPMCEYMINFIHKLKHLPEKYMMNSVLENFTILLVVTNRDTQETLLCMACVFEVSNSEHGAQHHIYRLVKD
T4 sequence (Q9Y265 whole entry, chain 1 of 2, the tested form may be a part): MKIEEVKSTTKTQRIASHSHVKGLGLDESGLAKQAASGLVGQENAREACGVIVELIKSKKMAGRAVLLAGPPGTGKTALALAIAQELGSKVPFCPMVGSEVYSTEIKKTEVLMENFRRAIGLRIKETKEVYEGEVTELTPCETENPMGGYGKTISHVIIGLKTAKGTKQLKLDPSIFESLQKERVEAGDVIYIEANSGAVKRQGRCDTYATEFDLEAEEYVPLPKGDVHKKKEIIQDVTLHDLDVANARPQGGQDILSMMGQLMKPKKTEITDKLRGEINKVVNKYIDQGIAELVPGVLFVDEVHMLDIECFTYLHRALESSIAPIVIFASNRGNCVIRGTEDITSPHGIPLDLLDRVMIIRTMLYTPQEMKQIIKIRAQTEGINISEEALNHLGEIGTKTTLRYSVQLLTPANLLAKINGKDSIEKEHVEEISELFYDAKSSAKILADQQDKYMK
T4 sequence (Q9Y230 whole entry, chain 2 of 2, the tested form may be a part): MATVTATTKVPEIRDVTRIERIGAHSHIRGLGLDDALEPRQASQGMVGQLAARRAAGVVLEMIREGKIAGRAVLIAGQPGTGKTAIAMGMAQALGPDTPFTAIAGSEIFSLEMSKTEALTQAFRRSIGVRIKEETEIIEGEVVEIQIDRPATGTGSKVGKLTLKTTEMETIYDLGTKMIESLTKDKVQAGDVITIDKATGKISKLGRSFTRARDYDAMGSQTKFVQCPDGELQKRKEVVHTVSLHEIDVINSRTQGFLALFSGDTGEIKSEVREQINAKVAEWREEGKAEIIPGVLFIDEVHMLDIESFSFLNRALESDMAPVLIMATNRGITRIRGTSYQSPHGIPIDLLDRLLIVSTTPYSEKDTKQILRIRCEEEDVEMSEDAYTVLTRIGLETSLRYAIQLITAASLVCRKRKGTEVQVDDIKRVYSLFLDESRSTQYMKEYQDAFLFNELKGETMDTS
T1 sequence (P28347 whole entry): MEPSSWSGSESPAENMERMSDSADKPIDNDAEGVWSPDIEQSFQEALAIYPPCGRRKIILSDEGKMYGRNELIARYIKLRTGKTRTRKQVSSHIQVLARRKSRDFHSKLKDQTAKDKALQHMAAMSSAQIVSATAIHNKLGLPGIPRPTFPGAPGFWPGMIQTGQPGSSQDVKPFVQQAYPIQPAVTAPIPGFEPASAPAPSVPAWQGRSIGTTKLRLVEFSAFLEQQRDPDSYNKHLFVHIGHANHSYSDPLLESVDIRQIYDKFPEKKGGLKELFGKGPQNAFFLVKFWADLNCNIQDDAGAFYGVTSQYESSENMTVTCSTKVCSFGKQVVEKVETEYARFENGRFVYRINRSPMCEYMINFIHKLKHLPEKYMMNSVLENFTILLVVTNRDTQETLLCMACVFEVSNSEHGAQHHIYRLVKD

O=C(CCl)c1ccccc1Nc1cccc(C(F)(F)F)c1 [TED-347]
IC50 (TEAD1 [1]): 340 nM
Kd (TEAD1 [2]): 1400 nM
ka ± SD of YAP(2-268):TEAD1 interaction in presence of binder [3, 5]: 1.2e+06 ± 120000 M⁻¹ s⁻¹
kd ± SD of YAP(2-268):TEAD1 interaction in presence of binder [3, 5]: 0.34 ± 0.074 s⁻¹
Effect on YAP(2-268):TEAD1 interaction compared with TEAD1 apo-form [3]: decrease in affinity

CCCC[C@@H]1NC(=O)[C@H](CCCCN)NC(=O)[C@H](CCCNC(=N)N)NC(=O)[C@H](CC(C)C)NC(=O)[C@@H](NC(=O)[C@H](Cc2cccc(Cl)c2)NC(=O)[C@@H]2CCCN2C(=O)[C@@H](NC(C)=O)C(C)C)CCSSC[C@@H](C(=O)N[C@@H](CCCCN)C(=O)N2CCC[C@H]2C(=O)N2CCC[C@H]2C(=O)N[C@@H](CCC(=O)O)C(N)=O)NC(=O)[C@H](Cc2ccccc2)NC(=O)[C@H](CO)NC(=O)[C@H](C)NC(=O)[C@@H]2CCCN2C1=O [Peptide 17]
Effect on YAP(2-268):TEAD1 interaction compared with TEAD1 apo-form [3]: significantly suppressed the interaction

Nc1ncnc2c1ncn2[C@@H]1O[C@H](CO[P@](=O)(O)O[P@](=O)(O)O[P@@](=O)(O)S)[C@@H](O)[C@H]1O [ATPγS]
Effect on DKC1:RuvBL1/RuvBL2 interaction (DKC1(1-514); saturating concentrations, data not shown): Identical results

RuvBL1_D302N, RuvBL2_D299N: ATP hydrolysis RuvBL1/RuvBL2 mutant
Interaction with immobilized DKC1(1-514) (DKC1(1-514); compared with RuvBL1(1-456)/RuvBL2(1-463), partly data not shown): Identical results

B1: Cellular biotinylated H/ACA ribonucleoprotein complex subunit Dyskerin pseudouridine synthase 1, His6-DKC1(1-514)-AviTag (natural protein, UniProt O60832 1-514, looked up)
chain: T3 sequence (O60832 1-514)
modifications: biotin on the AviTag (BirA, in the cells)
notes: Dyskerin pseudouridine synthase 1 (DKC1), residues 1-514; Captured from the lysate on a neutravidin-coated CM5 chip by the biotinylated AviTag; also called DCK1(1-514); DCK1(1-541); source: E. coli BL21(DE3), co-expressed with BirA-FLAG and D-biotin, in cleared lysate (desalted, not purified); not shown: His6, N-terminal, kept; AviTag, C-terminal, kept
Kd [4]: 23 nM
koff [4]: 0.015 s⁻¹
kon [4]: 650000 M⁻¹ s⁻¹
